Columns and labels:
CCL2 = assay: Mouse CCL2 assay in MLE12 cells; format: cell-based; conditions: Mus musculus, MLE12, 30 h, MLE12 cells; TNF-α 20 ng/ml; supernatant after 30 hours; HTRF; read-out: CCL2 (EC50)
Method in brief: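 CCL2 in supernatants was quantified by two-antibody HTRF FRET, read at 620 and 665 nm after overnight RT incubation, with IC50 derived from delta ratios. Cells were SV40-transformed mouse MLE12, treated with duplicate 6-point compound series for 1 h before 30 h TNF-α (20 ng/ml final) stimulation.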

MLE12 cells = assay: Cell viability assay in MLE12 cells (resazurin); format: cell-based, mouse; conditions: Mus musculus, MLE12, 24 h, TNF-α 20 ng/ml, resazurin added after 24 hours culture
Method in brief: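 MLE12 cells (7500 cells/well) were seeded onto 11-point duplicate compound dose-responses, with TNF-α (final 20 ng/ml) added after 1 hour at 37° C. After 24 hours, resazurin was added for 6 hours and resorufin fluorescence read (ex544 nm/em595 nm). EC50 values were calculated by curve fitting.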

OGG1 = OGG1 (Homo sapiens (Human), UniProt O15527); assay: In vitro OGG1 activity assay; format: biochemical; conditions: 800 pM OGG1 enzyme, 2 nM human APEX1, 10 nM 8-oxoA:C substrate
Method in brief: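 Read-out is fluorescein fluorescence, with compounds in DMSO added first, then enzyme and substrate. OGG1 excises its substrate base from a quenched fluorophore-labelled duplex, and surplus APEX1 cuts the resulting apurinic site. The duplex then melts and fluorescence rises in proportion to glycosylase activity.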

Chain of OGG1 (O15527 whole entry): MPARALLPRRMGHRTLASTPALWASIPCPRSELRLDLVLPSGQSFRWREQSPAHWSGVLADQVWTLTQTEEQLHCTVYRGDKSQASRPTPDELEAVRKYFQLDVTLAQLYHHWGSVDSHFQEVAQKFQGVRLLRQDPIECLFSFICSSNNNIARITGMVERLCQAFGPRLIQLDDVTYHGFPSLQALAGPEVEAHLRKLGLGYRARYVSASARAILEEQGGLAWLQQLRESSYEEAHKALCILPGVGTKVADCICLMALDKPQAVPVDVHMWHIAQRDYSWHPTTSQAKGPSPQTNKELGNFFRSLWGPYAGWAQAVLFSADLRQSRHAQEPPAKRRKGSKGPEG

| Compound | EC50 (CCL2) [µM] | IC50 (OGG1) [µM] | IC50 (MLE12 cells) [µM] |
| --- | --- | --- | --- |
| Cc1ccc(NC(=O)[C@H]2CC[C@@H](n3c(=O)[nH]c4c(Br)cccc43)CC2)c(F)c1 [Example 153, (Cis)-4-(4-bromo-2-oxo-2,3-dihydro-1H-1,3-benzodiazol-1-yl)-N-(2-fluoro-4-methylphenyl)cyclohexane-1-carboxamide] | 44 | 0.383 | 24.6 |
| COc1ccc(NC(=O)[C@H]2CC[C@@H](n3c(=O)[nH]c4c(Br)cccc43)CC2)c(F)c1F [Example 154, (Cis)-4-(4-bromo-2-oxo-2,3-dihydro-1H-1,3-benzodiazol-1-yl)-N-(2,3-difluoro-4-methoxyphenyl)cyclohexane-1-carboxamide] | 52.3 | 0.383 | 16.1 |
| COc1ccc(NC(=O)[C@H]2CC[C@@H](n3c(=O)[nH]c4c(Br)cccc43)CC2)cc1F [Example 164, (Cis)-4-(4-bromo-2-oxo-2,3-dihydro-1H-1,3-benzodiazol-1-yl)-N-(3-fluoro-4-methoxyphenyl)cyclohexane-1-carboxamide] | 33.9 | 0.043 | 12.9 |
| O=c1[nH]c2c(Br)cccc2n1[C@H]1CC[C@@H](C(=O)Nc2ccc3c(c2)OCO3)CC1 [Example 166, (Cis)-N-(2H-1,3-benzodioxol-5-yl)-4-(4-bromo-2-oxo-2,3-dihydro-1H-1,3-benzodiazol-1-yl)cyclohexane-1-carboxamide] | 42.7 | 0.041 | 16.4 |
| Cn1ncc2cc(NC(=O)[C@H]3CC[C@@H](n4c(=O)[nH]c5c(Br)cccc54)CC3)ccc21 [Example 171, (Cis)-4-(4-bromo-2-oxo-2,3-dihydro-1H-1,3-benzodiazol-1-yl)-N-(1-methyl-1H-indazol-5-yl)cyclohexane-1-carboxamide] | 41.1 | 0.211 | 17.5 |
| COc1ccc(NC(=O)[C@H]2CC[C@@H](n3c(=O)[nH]c4c(Br)cccc43)CC2)cn1 [Example 183, Cis-4-(4-bromo-2-oxo-2,3-dihydro-1H-1,3-benzodiazol-1-yl)-N-(6-methoxypyridin-3-yl)cyclohexane-1-carboxamide] | 36.2 | 0.174 | 17 |
| O=c1[nH]c2c(Br)cccc2n1[C@H]1CC[C@@H](C(=O)Nc2ccc(O)cc2)CC1 [Example 191, Cis-4-(4-bromo-2-oxo-2,3-dihydro-1H-1,3-benzodiazol-1-yl)-N-(4-hydroxyphenyl)cyclohexane-1-carboxamide] | 33.5 | 0.0557 | 29.8 |
| Cc1cc(NC(=O)[C@H]2CC[C@@H](n3c(=O)[nH]c4c(Br)cccc43)CC2)ccc1O [Example 194, Cis-4-(4-bromo-2-oxo-2,3-dihydro-1H-1,3-benzodiazol-1-yl)-N-(4-hydroxy-3-methylphenyl)cyclohexane-1-carboxamide] | 33.5 | 0.0172 | 15.6 |
| COc1ccc(NC(=O)[C@H]2CC[C@@H](n3c(=O)[nH]c4c(OC)cccc43)CC2)cc1C [Example 206, Cis-4-(4-methoxy-2-oxo-2,3-dihydro-1H-1,3-benzodiazol-1-yl)-N-(4-methoxy-3-methylphenyl)cyclohexane-1-carboxamide] | 33.7 | 0.0154 | 26.7 |
| COc1cccc2c1[nH]c(=O)n2[C@H]1CC[C@@H](C(=O)Nc2ccc3cc[nH]c3c2)CC1 [Example 209, Cis-N-(1H-indol-6-yl)-4-(4-methoxy-2-oxo-2,3-dihydro-1H-1,3-benzodiazol-1-yl)cyclohexane-1-carboxamide] | 34.9 | 0.402 | 21.5 |
| COc1ccc(NC(=O)[C@H]2CC[C@@H](n3c(=O)[nH]c4c(F)cccc43)CC2)cc1C [Example 212, Cis-4-(4-fluoro-2-oxo-2,3-dihydro-1H-1,3-benzodiazol-1-yl)-N-(4-methoxy-3-methylphenyl)cyclohexane-1-carboxamide] | 34.2 | 0.00943 | 16.9 |

More lines, main results first:

| EC50 (CCL2) [µM] | IC50 (OGG1) [µM] | Compound | IC50 (MLE12 cells) [µM] |
| --- | --- | --- | --- |
| 18.7 | 0.106 | O=c1[nH]c2c(Cl)cccc2n1[C@H]1CC[C@@H](C(=O)Nc2ccc(Cl)cc2)CC1 [Example 150, (Cis)-4-(4-chloro-2-oxo-2,3-dihydro-1H-1,3-benzodiazol-1-yl)-N-(4-chlorophenyl)cyclohexane-1-carboxamide] | 7.58 |
| 5.25 | 0.526 | COC(=O)c1cc(NC(=O)[C@H]2CC[C@@H](n3c(=O)[nH]c4c(Br)cccc43)CC2)ccc1OC [Example 151, Methyl 2-methoxy-5-[(cis)-4-(4-bromo-2-oxo-2,3-dihydro-1H-1,3-benzodiazol-1-yl)cyclohexaneamido]benzoate] | 17.1 |
| 15.4 | 0.074 | Cc1cc(NC(=O)[C@H]2CC[C@@H](n3c(=O)[nH]c4c(Br)cccc43)CC2)ccc1Cl [Example 152, (Cis)-4-(4-bromo-2-oxo-2,3-dihydro-1H-1,3-benzodiazol-1-yl)-N-(4-chloro-3-methylphenyl)cyclohexane-1-carboxamide] | 6.18 |
| 25.6 | 0.081 | COc1c(F)cc(NC(=O)[C@H]2CC[C@@H](n3c(=O)[nH]c4c(Br)cccc43)CC2)cc1F [Example 160, (Cis)-4-(4-bromo-2-oxo-2,3-dihydro-1H-1,3-benzodiazol-1-yl)-N-(3,5-difluoro-4-methoxyphenyl)cyclohexane-1-carboxamide] | 8.18 |
| 32.6 | 0.044 | COc1ncc(NC(=O)[C@H]2CC[C@@H](n3c(=O)[nH]c4c(Br)cccc43)CC2)cc1C [Example 168, (Cis)-4-(4-bromo-2-oxo-2,3-dihydro-1H-1,3-benzodiazol-1-yl)-N-(6-methoxy-5-methylpyridin-3-yl)cyclohexane-1-carboxamide] | 14.4 |
| 16.8 | 0.325 | O=c1[nH]c2c(Br)cccc2n1[C@H]1CC[C@@H](C(=O)Nc2ccc(Cl)nc2)CC1 [Example 184, Cis-4-(4-bromo-2-oxo-2,3-dihydro-1H-1,3-benzodiazol-1-yl)-N-(6-chloropyridin-3-yl)cyclohexane-1-carboxamide] | 7.86 |
| 13 | 0.338 | Cc1cc(NC(=O)[C@H]2CC[C@@H](n3c(=O)[nH]c4c(Br)cccc43)CC2)cnc1Cl [Example 187, Cis-4-(4-bromo-2-oxo-2,3-dihydro-1H-1,3-benzodiazol-1-yl)-N-(6-chloro-5-methylpyridin-3-yl)cyclohexane-1-carboxamide] | 7.9 |
| 32.9 | 0.0342 | COc1ccc(NC(=O)[C@H]2CC[C@@H](n3c(=O)[nH]c4c(Br)cccc43)CC2)cc1OC [Example 192, Cis-4-(4-bromo-2-oxo-2,3-dihydro-1H-1,3-benzodiazol-1-yl)-N-(3,4-dimethoxyphenyl)cyclohexane-1-carboxamide] | 15.7 |
| 30.2 | 0.0389 | O=c1[nH]c2c(Br)cccc2n1[C@H]1CC[C@@H](C(=O)Nc2ccc3c(c2)OCCO3)CC1 [Example 197, Cis-4-(4-bromo-2-oxo-2,3-dihydro-1H-1,3-benzodiazol-1-yl)-N-(2,3-dihydro-1,4-benzodioxin-6-yl)cyclohexane-1-carboxamide] | 19.5 |
| 16.5 | 0.494 | Cc1n[nH]c2ccc(NC(=O)[C@H]3CC[C@@H](n4c(=O)[nH]c5c(Br)cccc54)CC3)cc12 [Example 199, Cis-4-(4-bromo-2-oxo-2,3-dihydro-1H-1,3-benzodiazol-1-yl)-N-(3-methyl-1H-indazol-5-yl)cyclohexane-1-carboxamide] | 7.51 |
| 18.2 | 0.0351 | O=c1[nH]c2c(Br)cccc2n1[C@H]1CC[C@@H](C(=O)Nc2ccc(O)c(Cl)c2)CC1 [Example 201, Cis-4-(4-bromo-2-oxo-2,3-dihydro-1H-1,3-benzodiazol-1-yl)-N-(3-chloro-4-hydroxyphenyl)cyclohexane-1-carboxamide] | 10.4 |
| 11.6 | 0.0528 | COc1ncc(NC(=O)[C@H]2CC[C@@H](n3c(=O)[nH]c4c(Br)cccc43)CC2)cc1Cl [Example 202, Cis-4-(4-bromo-2-oxo-2,3-dihydro-1H-1,3-benzodiazol-1-yl)-N-(5-chloro-6-methoxypyridin-3-yl)cyclohexane-1-carboxamide] | 7.97 |
| 12.9 | 0.0656 | O=c1[nH]c2c(Br)cccc2n1[C@H]1CC[C@@H](C(=O)Nc2ccc3ncccc3c2)CC1 [Example 204, Cis-4-(4-bromo-2-oxo-2,3-dihydro-1H-1,3-benzodiazol-1-yl)-N-(quinolin-6-yl)cyclohexane-1-carboxamide] | 7.93 |
| 15.2 | 0.0272 | Cc1ccc(NC(=O)[C@H]2CC[C@@H](n3c(=O)[nH]c4c(Br)cccc43)CC2)cc1O [Example 221, Cis-4-(4-bromo-2-oxo-2,3-dihydro-1H-1,3-benzodiazol-1-yl)-N-(3-hydroxy-4-methylphenyl)cyclohexane-1-carboxamide] | 7.84 |

From patent US11970474B2, “Substituted benzodiazoles and use thereof in therapy” (THOMAS HELLEDAYS STIFTELSE FÖR MEDICINSK FORSKNING, priority 2018, dated 2024)
